Earlier results, collected in article PMC5563391 (Investigational new drugs, 2015).

Test system: patients with CML or Ph+ ALL
Settings: phase 1 study; cited from earlier work

CO[C@@H](C(=O)N1Cc2n[nH]c(NC(=O)c3ccc(N4CCN(C)CC4)cc3)c2C1)c1ccccc1 [danusertib]
patients with responses: 6 of 23
